Measured values taken from PubChem BioAssay (NCI).
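Five concentrations, 48 hours, 96-well plates. TGI: concentration producing complete growth inhibition.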

Key:
Experiment in all cases: growth of human tumour cells (NCI), 48 h
IGROV1 ovarian = test system: IGROV1 ovarian
A498 renal = test system: A498 renal
UO-31 renal = test system: UO-31 renal
UACC-257 melanoma = test system: UACC-257 melanoma
CAKI-1 renal = test system: CAKI-1 renal
NCI-H522 lung = test system: NCI-H522 lung
U251 CNS = test system: U251 CNS
SK-MEL-5 melanoma = test system: SK-MEL-5 melanoma
HOP-62 NSCLC = test system: HOP-62 NSCLC
LXFL 529 NSCLC = test system: LXFL 529 NSCLC
MALME-3M melanoma = test system: MALME-3M melanoma
SK-MEL-2 melanoma = test system: SK-MEL-2 melanoma
MOLT-4 leukemia = test system: MOLT-4 leukemia
A549 NSCLC = test system: A549 NSCLC
XF 498 CNS = test system: XF 498 CNS
ACHN renal = test system: ACHN renal
COLO 205 colon = test system: COLO 205 colon
NCI-H23 lung = test system: NCI-H23 lung
NCI-H460 lung = test system: NCI-H460 lung
UACC-62 melanoma = test system: UACC-62 melanoma
SNB-78 CNS = test system: SNB-78 CNS
SW-620 colon = test system: SW-620 colon
LOX IMVI melanoma = test system: LOX IMVI melanoma
RPMI-8226 leukemia = test system: RPMI-8226 leukemia
EKVX NSCLC = test system: EKVX NSCLC
SF-268 CNS = test system: SF-268 CNS
TK-10 renal = test system: TK-10 renal
SK-OV-3 ovarian = test system: SK-OV-3 ovarian
K-562 leukemia = test system: K-562 leukemia
M14 melanoma = test system: M14 melanoma
HL-60(TB) leukemia = test system: HL-60(TB) leukemia
SNB-75 CNS = test system: SNB-75 CNS
CCRF-CEM leukemia = test system: CCRF-CEM leukemia
SK-MEL-28 melanoma = test system: SK-MEL-28 melanoma
HCC-2998 colon = test system: HCC-2998 colon
OVCAR-8 ovarian = test system: OVCAR-8 ovarian
KM12 colon = test system: KM12 colon
HCT-15 colon = test system: HCT-15 colon
DLD-1 colon = test system: DLD-1 colon
KM20L2 colon = test system: KM20L2 colon
HOP-92 NSCLC = test system: HOP-92 NSCLC
RXF-631 renal = test system: RXF-631 renal
RXF 393 renal = test system: RXF 393 renal
HT29 colon = test system: HT29 colon
SF-539 CNS = test system: SF-539 CNS
786-0 renal = test system: 786-0 renal
OVCAR-5 ovarian = test system: OVCAR-5 ovarian
M19-MEL melanoma = test system: M19-MEL melanoma
SN12C renal = test system: SN12C renal
OVCAR-4 ovarian = test system: OVCAR-4 ovarian
OVCAR-3 ovarian = test system: OVCAR-3 ovarian
SF-295 CNS = test system: SF-295 CNS
NCI-H226 lung = test system: NCI-H226 lung
DMS 114 small cell lung = test system: DMS 114 small cell lung
HCT-116 colon = test system: HCT-116 colon
SR leukemia = test system: SR leukemia
DMS 273 small cell lung = test system: DMS 273 small cell lung
SNB-19 CNS = test system: SNB-19 CNS

Measured: TGI

O=C1CCC2(c3ccccc3)Nc3cc(Cl)ccc3N12 (stereo not given)
71.5 µM: UACC-257 melanoma
85.1 µM: SK-OV-3 ovarian
98.7 µM: A498 renal
48.1 µM: HL-60(TB) leukemia
63.3 µM: UO-31 renal
60.7 µM: NCI-H23 lung
57.3 µM: DMS 114 small cell lung
57.9 µM: MOLT-4 leukemia
75.5 µM: MALME-3M melanoma
40.7 µM: HOP-92 NSCLC
53.5 µM: SK-MEL-2 melanoma
87.1 µM: CAKI-1 renal
82.6 µM: M19-MEL melanoma
31.6 µM: COLO 205 colon
64.9 µM: SNB-75 CNS
62.8 µM: OVCAR-3 ovarian
96.1 µM: ACHN renal
58.6 µM: RPMI-8226 leukemia
56.4 µM: UACC-62 melanoma
56.6 µM: XF 498 CNS
65.1 µM: NCI-H226 lung
75.2 µM: CCRF-CEM leukemia
32.4 µM: SK-MEL-5 melanoma
96 µM: SF-295 CNS
not listed: HCT-116 colon | SR leukemia | DMS 273 small cell lung | SNB-19 CNS
> 100 µM: all other assays above

CCC1=CC2CC(C(=O)OC)C1(N(C)C)C2=O (stereo not given)
not listed: CAKI-1 renal | SK-MEL-5 melanoma | LXFL 529 NSCLC | MALME-3M melanoma | SK-MEL-2 melanoma | XF 498 CNS | COLO 205 colon | SW-620 colon | LOX IMVI melanoma | RPMI-8226 leukemia | K-562 leukemia | SNB-75 CNS | HCC-2998 colon | HCT-15 colon | DLD-1 colon | KM20L2 colon | SF-539 CNS | 786-0 renal | SN12C renal | OVCAR-4 ovarian | OVCAR-3 ovarian | NCI-H226 lung
> 100 µM: all other assays above
